Assay results taken from US9301951B2 (Ardelyx, Inc., priority 2010, dated 2016).

How the values were obtained:
[1] = Fecal recovery of orally administered compounds; assay type: in vivo; details: rat; oral gavage; feces collected until 48 hr after dosing
Excerpt: In this respect, it is understood that a recovered compound can include the sum of the parent compound and its metabolites derived from the parent compound, e.g., by means of hydrolysis, conjugation, reduction, oxidation, N-alkylation, glucuronidation, acetylation, methylation, sulfation, phosphorylation, or any other modification that adds atoms to or removes atoms from the parent compound, wherein the metabolites are generated via the action of any enzyme or exposure to any physiological environment including, pH, temperature, pressure, or interactions with foodstuffs as they exist in the digestive milieu. Measurement of fecal recovery of compound and metabolites can be carried out using standard methodology. For example, compound can be administered orally at a suitable dose (e.g., 10 mg/kg) and feces are then collected at predetermined times after dosing (e.g., 24 hours, 48 hours, 72 hours). Parent compound and metabolites can be extracted with organic solvent and analyzed quantitatively using mass spectrometry. A mass balance analysis of the parent compound and metabolites (including, parent=M, metabolite 1 [M+16], and metabolite 2 [M+32]) can be used to determine the percent recovery in the feces.
Quantitative determination of test compound level in feces after oral gavage was performed using the same set of animals used to determine test compound concentration in plasma (Example 352). The animals were kept in metabolic cages and feces were collected from the time of dosing until 48 hr after dosing. Upon collection, feces were dried by lyophilization and ground to a visually homogenous powder. Duplicate samples of ground feces from each individual animal were weighed out and extracted using organic solvent. Extracted samples were then diluted into mobile phase and test compound levels were quantitatively determined by LC-MS/MS analysis as described in Example 352 except that the standard curve was prepared in a feces matrix. Extraction conditions were not optimized for individual compounds, and thus may represent a minimal level of recovery.

human NaP2b (SLC34A2) = target: T1, human NaP2b (SLC34A2) (Homo sapiens, UniProt O95436); test: Inhibition of NaP2b-mediated Pi (33P) uptake in transfected HEK293 cells, human NaP2b; assay type: cell-based; details: HEK293 cells transfected with human NaP2b, 100 uM phosphate, 0.1 nM to 30 uM, read-out: pIC50 range for human NaP2b (converted)
T1 construct: host or cells: HEK293
T1 sequence (O95436 1-690): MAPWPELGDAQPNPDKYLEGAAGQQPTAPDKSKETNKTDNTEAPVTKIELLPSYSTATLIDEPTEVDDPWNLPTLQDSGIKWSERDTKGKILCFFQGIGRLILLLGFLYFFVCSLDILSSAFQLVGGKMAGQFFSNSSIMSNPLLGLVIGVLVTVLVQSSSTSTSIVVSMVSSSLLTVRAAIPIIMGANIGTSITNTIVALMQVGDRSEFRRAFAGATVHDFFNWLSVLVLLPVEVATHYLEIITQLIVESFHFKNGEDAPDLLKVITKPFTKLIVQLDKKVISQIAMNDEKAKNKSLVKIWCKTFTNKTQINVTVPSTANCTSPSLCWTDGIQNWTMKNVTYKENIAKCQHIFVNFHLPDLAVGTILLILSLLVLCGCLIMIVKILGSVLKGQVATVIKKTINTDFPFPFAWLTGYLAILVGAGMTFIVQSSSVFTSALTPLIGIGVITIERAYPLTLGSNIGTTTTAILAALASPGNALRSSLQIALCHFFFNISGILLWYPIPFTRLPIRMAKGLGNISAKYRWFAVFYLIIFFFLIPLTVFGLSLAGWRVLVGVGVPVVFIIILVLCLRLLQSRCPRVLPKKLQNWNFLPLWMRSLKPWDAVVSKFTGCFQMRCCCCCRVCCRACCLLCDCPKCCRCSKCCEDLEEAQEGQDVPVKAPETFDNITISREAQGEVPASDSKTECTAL
Outline: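 HEK293 cells transiently expressing mutated human NaP2b, with PiT transport pharmacologically silenced; sodium-dependent 33P-phosphate uptake (100 uM KH2PO4, pH 7.4) measured over 3–30 min at room temperature by scintillation. Twelve compound concentrations from 0.1 nM to 30 uM, in duplicate; pIC50 calculated.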

Row | Compound | % recovered in feces [1] | IC50 (human NaP2b (SLC34A2)) [nM]
1 | O=C(O)CCSCc1cccc(C(=O)Nc2ccc(N3CCCCC3)cc2-c2cc(C(=O)NCc3cccc(C(F)(F)F)c3)ccn2)c1 [Example 1.1, 3-(3-((2-(4-((3-(trifluoromethyl)benzyl)carbamoyl)pyridin-2-yl)-4-(piperidin-1-yl)phenyl)carbamoyl)-benzylthio)propanoic acid] | 20-80% | 1000 to 7940
2 | CCN(CC)c1ccc(NC(=O)c2cccc(C(=O)N(C)CCN3CCOCC3)c2)c(-c2cc(C(=O)NCc3cccc(C(F)(F)F)c3)ccn2)c1 [Example 25, N1-(4-(Diethylamino)-2-(4-((3-(trifluoromethyl)benzyl)carbamoyl)pyridin-2-yl)phenyl)-N3-methyl-N3-(2-morpholinoethyl)isophthalamide] | 20-80% | < 1000
